Source: patent US8273527B2, “Viral variants” (priority 1999, dated 2012)

What was measured:
[1] = tested on: HBV; conditions: in vitro; cited from earlier work
[2] = tested on: HBV; test: FCV prophylaxis liver transplantation trial (response pre-OLT, HBV recurrence post-OLT); type: in vivo, patients
Text: The clinical details of the FCV prophylaxis liver transplantation protocol as previously described (19). Briefly, the aim of the study was to compare the safety and efficacy of oral FCV and IV penciclovir in reducing the risk of hepatitis B re-infection post-OLT in liver transplant patients. The study design was a multicentre, randomized, part double-blind, part placebo controlled trial in patients with end stage liver disease requiring OLT. Patients with HBV DNA levels more than 90 pg/ml at study entry (by hybridization) [high replicators] were treated with both FCV and HBIG post-OLT. These high replicators were treated with FCV (500 mg tds) to reduce HBV DNA levels prior to OLT. Famciclovir treatment was continued for 12 months post-OLT. An untreated control group of patients with HBV DNA levels less than 90 pg/ml [low replicators] at study entry were treated with HBIG alone post-OLT. In the original study, thirty six patients underwent OLT, and of these the clinical and virological outcome of twenty-two of the FCV treated patients has recently been presented (17 Manns).
Twenty six patients who had HBV levels more than 90 pg/ml at study entry (high HBV replicator [HR]) were treated with FCV pre-OLT and those patients who responded were then treated with HBIG plus FCV post-OLT. […]

[3] = tested on: duck HBV virus; conditions: oral, in vivo; cited from earlier work
[4] = tested on: HBV; conditions: one patient with severe hepatitis B following OLT; cited from earlier work
[5] = tested on: duck HBV; conditions: in vitro; cited from earlier work
[6] = biological target: HBV DNA polymerase-reverse transcriptase (Hepatitis B virus genotype D subtype ayw, UniProt P03156); conditions: in vitro; cited from earlier work
Chain of HBV DNA polymerase-reverse transcriptase (P03156 whole entry): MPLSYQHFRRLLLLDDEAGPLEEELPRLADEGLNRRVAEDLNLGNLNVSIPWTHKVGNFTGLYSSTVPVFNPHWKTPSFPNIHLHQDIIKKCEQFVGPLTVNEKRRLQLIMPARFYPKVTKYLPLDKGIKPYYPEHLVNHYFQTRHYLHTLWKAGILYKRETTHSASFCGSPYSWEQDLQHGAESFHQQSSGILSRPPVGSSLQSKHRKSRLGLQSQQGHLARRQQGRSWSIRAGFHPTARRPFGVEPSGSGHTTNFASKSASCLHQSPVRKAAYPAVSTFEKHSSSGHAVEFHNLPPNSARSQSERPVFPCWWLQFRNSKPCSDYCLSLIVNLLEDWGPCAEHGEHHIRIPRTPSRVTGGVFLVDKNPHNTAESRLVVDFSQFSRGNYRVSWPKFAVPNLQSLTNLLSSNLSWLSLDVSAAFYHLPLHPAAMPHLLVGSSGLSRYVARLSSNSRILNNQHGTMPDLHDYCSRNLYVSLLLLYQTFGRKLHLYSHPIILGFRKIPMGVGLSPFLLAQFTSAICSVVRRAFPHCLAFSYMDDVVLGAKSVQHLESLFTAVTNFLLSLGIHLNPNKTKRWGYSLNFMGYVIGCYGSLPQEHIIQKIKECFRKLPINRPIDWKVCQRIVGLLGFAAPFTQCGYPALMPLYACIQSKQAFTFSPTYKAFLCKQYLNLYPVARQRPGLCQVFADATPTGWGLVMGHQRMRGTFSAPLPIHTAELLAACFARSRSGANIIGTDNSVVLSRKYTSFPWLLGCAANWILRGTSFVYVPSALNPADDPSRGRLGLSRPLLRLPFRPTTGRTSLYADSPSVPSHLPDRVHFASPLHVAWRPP

In the case of `Nc1ncnc2c1ncn2CCOCP(=O)(O)O` [Adefovir], the anti-HBV activity [1] is listed as “effective anti-HBV activity”.

For `CC(=O)OCC(CCn1cnc2cnc(N)nc21)COC(C)=O` [FCV, famciclovir], the “patients who responded to FCV” value ([2]; of 26 high HBV replicators (HBV more than 90 pg/ml at study entry) treated with FCV pre-OLT) is listed as 19 patients, the “patients who did not initially respond to FCV” value ([2]; of the initial 26 high HBV replicators treated with FCV pre-OLT) is listed as 6 patients and the “inhibition of intra-hepatic replication of duck HBV virus” value [3] is listed as “inhibit”. The “effect on HBV DNA replication” value [4] was “reduce HBV DNA replication”.

In the case of `Nc1nc2c(ncn2CCC(CO)CO)c(=O)[nH]1` [Penciclovir, penciclovir], the “inhibitory activity against duck HBV DNA synthesis” value [5] is given as “potent inhibitory activity” and the “inhibition of HBV DNA polymerase-reverse transcriptase activity” value [6] is given as “inhibit”.
